Measured values reported in PubChem BioAssay AID248 (DTP/NCI, 2004).
“And” between values parts separate entries of the source, which are not always exact repeats. Equal entries are not always repeated. Inconclusive results and toxic doses are left out. Rule as the data show it: active = T/C of 150% or more; inactive = T/C below 125%.

Test system: L1210 leukemia ip in BDF1 mice, survival T/C
Test: NCI In Vivo Anticancer Drug Screen. Data for tumor model L1210 Leukemia (intraperitoneal) in B6D2F1 (BDF1) mice
Conditions: endpoint: mean survival time, higher = longer survival
Procedure, shortened: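 In this screen, tumor-bearing mice given compound are compared to those given vehicle, and their survival values are reported as a treated-to-control quotient.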

[1] = dose: 25.0 mg/kg/injection, schedule: Q01DX009 (ip), vehicle: Klucel (hydroxypropylcellulose) (HPC)
[2] = dose: 25.0 mg/kg/injection, schedule: Q04DX003 (ip), vehicle: Klucel (hydroxypropylcellulose) (HPC)
[3] = dose: 50.0 mg/kg/injection, schedule: Q01DX009 (ip), vehicle: Klucel (hydroxypropylcellulose) (HPC)
[4] = dose: 50.0 mg/kg/injection, schedule: Q04DX003 (ip), vehicle: Klucel (hydroxypropylcellulose) (HPC)
[5] = dose: 100.0 mg/kg/injection, schedule: Q04DX002 (ip), vehicle: Klucel (hydroxypropylcellulose) (HPC)
[6] = dose: 100.0 mg/kg/injection, schedule: Q04DX003 (ip), vehicle: Klucel (hydroxypropylcellulose) (HPC)
[7] = dose: 200.0 mg/kg/injection, schedule: Q04DX002 (ip), vehicle: Klucel (hydroxypropylcellulose) (HPC)
[8] = dose: 400.0 mg/kg/injection, schedule: Q04DX002 (ip), vehicle: Klucel (hydroxypropylcellulose) (HPC)
[9] = dose: 100.0 mg/kg/injection, schedule: Q01DX009 (ip), vehicle: saline with Tween-80
[10] = dose: 100.0 mg/kg/injection, schedule: Q04DX003 (ip), vehicle: saline with Tween-80
[11] = dose: 200.0 mg/kg/injection, schedule: Q01DX009 (ip), vehicle: saline with Tween-80
[12] = dose: 200.0 mg/kg/injection, schedule: Q04DX003 (ip), vehicle: saline with Tween-80
[13] = dose: 400.0 mg/kg/injection, schedule: Q01DX009 (ip), vehicle: saline with Tween-80
[14] = dose: 400.0 mg/kg/injection, schedule: Q04DX003 (ip), vehicle: saline with Tween-80
[15] = dose: 100.0 mg/kg/injection, schedule: Q04DX002 (ip), vehicle: saline with Tween-80
[16] = dose: 200.0 mg/kg/injection, schedule: Q04DX002 (ip), vehicle: saline with Tween-80
[17] = dose: 400.0 mg/kg/injection, schedule: Q04DX002 (ip), vehicle: saline with Tween-80
[18] = dose: 100.0 mg/kg/injection, schedule: Q04DX003 (ip), vehicle: saline
[19] = dose: 200.0 mg/kg/injection, schedule: Q04DX003 (ip), vehicle: saline
[20] = dose: 200.0 mg/kg/injection, schedule: Q01DX001 (ip), vehicle: carboxymethylcellulose (CMC)
[21] = dose: 400.0 mg/kg/injection, schedule: Q04DX003 (ip), vehicle: saline
[22] = dose: 100.0 mg/kg/injection, schedule: Q01DX001 (ip), vehicle: carboxymethylcellulose (CMC)
[23] = dose: 400.0 mg/kg/injection, schedule: Q01DX001 (ip), vehicle: carboxymethylcellulose (CMC)

Measured: T/C

O=C(Nc1ccccc1F)Sc1c(Cl)c(Cl)nc(Cl)c1Cl
inactive: [1] 96 % of control and 101 % of control | [2] 105 % of control | [3] 94 % of control and 101 % of control | [4] 102 % of control | [5] 101 % of control and 107 % of control | [6] 113 % of control | [7] 96 % of control and 106 % of control | [8] 103 % of control and 115 % of control

Cc1c(Cl)cccc1NC(=O)Oc1ccc(Cl)cc1
inactive: [9] 92 % of control | [10] 93 % of control | [11] 87 % of control | [12] 97 % of control | [13] 87 % of control | [14] 102 % of control

COc1ccc(OC)c(NC(=O)c2ccc(Cl)c(Cl)c2)c1
inactive: dose: 100.0 mg/kg/injection, schedule: Q01DX001 (ip), vehicle: saline with Tween-80 106 % of control | [9] 93 % of control and 98 % of control | [15] 97 % of control and 99 % of control | [10] 105 % of control | dose: 200.0 mg/kg/injection, schedule: Q01DX001 (ip), vehicle: saline with Tween-80 101 % of control | [11] 97 % of control and 102 % of control | [16] 108 % of control and 89 % of control | [12] 108 % of control | dose: 400.0 mg/kg/injection, schedule: Q01DX001 (ip), vehicle: saline with Tween-80 108 % of control | [13] 111 % of control | [17] 104 % of control and 91 % of control | [14] 89 % of control

O=[N+]([O-])c1ccccc1NC1OC(CO)C(O)C1O (configuration not stated)
inactive: [15] 102 % of control | [16] 98 % of control | [17] 102 % of control

C=CCNC(=S)Nc1cccc(OC(=O)Nc2ccc(Cl)c(Cl)c2)c1
inactive: dose: 100.0 mg/kg/injection, schedule: Q01DX009 (ip), vehicle: Klucel (hydroxypropylcellulose) (HPC) 87 % of control | dose: 200.0 mg/kg/injection, schedule: Q01DX009 (ip), vehicle: Klucel (hydroxypropylcellulose) (HPC) 92 % of control

O/N=C\c1ccnc2ccccc12
inactive: dose: 100.0 mg/kg/injection, schedule: Q01DX009 (ip), vehicle: carboxymethylcellulose (CMC) 93 % of control and 98 % of control | dose: 100.0 mg/kg/injection, schedule: Q04DX002 (ip), vehicle: carboxymethylcellulose (CMC) 100 % of control (2×) and 104 % of control | dose: 100.0 mg/kg/injection, schedule: Q04DX003 (ip), vehicle: carboxymethylcellulose (CMC) 97 % of control | dose: 200.0 mg/kg/injection, schedule: Q01DX009 (ip), vehicle: carboxymethylcellulose (CMC) 105 % of control and 90 % of control | dose: 200.0 mg/kg/injection, schedule: Q04DX002 (ip), vehicle: carboxymethylcellulose (CMC) 95 % of control and 100 % of control (2×) | dose: 200.0 mg/kg/injection, schedule: Q04DX003 (ip), vehicle: carboxymethylcellulose (CMC) 104 % of control | dose: 400.0 mg/kg/injection, schedule: Q01DX009 (ip), vehicle: carboxymethylcellulose (CMC) 98 % of control | dose: 400.0 mg/kg/injection, schedule: Q04DX002 (ip), vehicle: carboxymethylcellulose (CMC) 100 % of control and 104 % of control and 90 % of control | dose: 400.0 mg/kg/injection, schedule: Q04DX003 (ip), vehicle: carboxymethylcellulose (CMC) 98 % of control

CC(=O)Nc1ccc(C(=O)CCl)cc1
inactive: [1] 95 % of control | [2] 93 % of control and 101 % of control | dose: 50.0 mg/kg/injection, schedule: Q01DX001 (ip), vehicle: carboxymethylcellulose (CMC) 101 % of control | [3] 88 % of control | [4] 105 % of control | [6] 110 % of control

O=C1C=C2CCN(Cc3ccccc3)CC2CC1 (configuration not stated)
inactive: dose: 100.0 mg/kg/injection, schedule: Q01DX001 (ip), vehicle: acetone 97 % of control | [18] 104 % of control | dose: 200.0 mg/kg/injection, schedule: Q01DX001 (ip), vehicle: acetone 102 % of control | [19] 101 % of control | dose: 400.0 mg/kg/injection, schedule: Q01DX001 (ip), vehicle: acetone 98 % of control

CCCCCCCCCCCC(C)(O)CC (configuration not stated)
inactive: [10] 95 % of control | [12] 95 % of control | [14] 101 % of control

CCOc1c(Br)cc(N=Cc2ccc(N(CCCl)CCCl)c(OC)c2)cc1Br
inactive: dose: 44.0 mg/kg/injection, schedule: Q01DX001 (ip), vehicle: carboxymethylcellulose (CMC) 120 % of control | dose: 150.0 mg/kg/injection, schedule: Q01DX001 (ip), vehicle: carboxymethylcellulose (CMC) 123 % of control | [20] 104 % of control

Cc1ccc(N=Nc2ccc(C)cc2NC(=O)Nc2cc([N+](=O)[O-])ccc2C)cc1
inactive: [5] 92 % of control | [7] 101 % of control | [8] 111 % of control

Cc1ccnc(NS(=O)(=O)c2ccc(N=Nc3c(N)[nH]c(=O)[nH]c3=O)cc2)n1
inactive: dose: 100.0 mg/kg/injection, schedule: Q01DX001 (ip), vehicle: saline 100 % of control | dose: 200.0 mg/kg/injection, schedule: Q01DX001 (ip), vehicle: saline 102 % of control | dose: 400.0 mg/kg/injection, schedule: Q01DX001 (ip), vehicle: saline 105 % of control

CC(=O)ON(C(C)=O)c1ccc(S(=O)(=O)c2ccc(N(OC(C)=O)C(C)=O)cc2)cc1
inactive: [18] 97 % of control | [19] 103 % of control | [21] 103 % of control

CC(C)(C)CC(C)(C)N
inactive: dose: 12.5 mg/kg/injection, schedule: Q01DX001 (ip), vehicle: Klucel (hydroxypropylcellulose) (HPC) 100 % of control | dose: 25.0 mg/kg/injection, schedule: Q01DX001 (ip), vehicle: Klucel (hydroxypropylcellulose) (HPC) 92 % of control | dose: 50.0 mg/kg/injection, schedule: Q01DX001 (ip), vehicle: Klucel (hydroxypropylcellulose) (HPC) 92 % of control

ClC(=Nc1ccccc1)c1cc(Cl)ccn1
inactive: [22] 92 % of control | [20] 94 % of control | [23] 100 % of control

COc1cc([N+](=O)[O-])ccc1NC(=O)c1ccccc1
inactive: [22] 99 % of control | [20] 101 % of control | [23] 97 % of control

COc1ccc2c(c1)-c1c(ccc(OC)c1OC(=O)C(=O)c1ccccc1)CC(Cl)N(C)CC2.[O]=[Cr](=[O])([OH])[OH] (configuration not stated)
inactive: [18] 89 % of control | [19] 89 % of control | [21] 90 % of control

Cc1ccc(CNC(=O)Nc2c(C)cccc2C)cc1C
inactive: [5] 102 % of control | [7] 108 % of control | [8] 97 % of control

CNc1cc(Cl)c(Cl)cc1[N+](=O)[O-]
inactive: dose: 100.0 mg/kg/injection, schedule: Q01DX009 (ip), vehicle: saline sonified 98 % of control | [6] 95 % of control | dose: 200.0 mg/kg/injection, schedule: Q01DX009 (ip), vehicle: saline sonified 98 % of control | dose: 200.0 mg/kg/injection, schedule: Q04DX003 (ip), vehicle: Klucel (hydroxypropylcellulose) (HPC) 98 % of control | dose: 400.0 mg/kg/injection, schedule: Q01DX009 (ip), vehicle: saline sonified 98 % of control | dose: 400.0 mg/kg/injection, schedule: Q04DX003 (ip), vehicle: Klucel (hydroxypropylcellulose) (HPC) 104 % of control
